Laboratory results as given in PMC3394890 (Therapeutic Drug Monitoring, 2012).
Where two headings read alike, the source gives them in different places. Bridge positions count the residues as written; N and C are the ends. Square brackets hold non-standard residues; d marks the D form. Peptide text beside a SMILES is read from it. * marks the point of attachment. Heptanoyl(6-Me) = CC(C)CCCCC(=O)*; X1 = CC[C@H](C)CCCCC(=O)*; Dab = NCC[C@H](N)C(=O)O

Tests used:
[1] = human, in vivo
[2] = format: in vitro ADME; details: human EDTA plasma QC samples
[3] = Polymyxin B1 and B2 plasma levels in further patient samples; details: human, in vivo, iv

| Compound | Cmax ([1]; female, iv, 1.5 mg/kg) | half-life ([1]; female, iv, 1.5 mg/kg) | level at 0 h ([1]; female, iv, 1.5 mg/kg) | level at 12 h ([1]; female, iv, 1.5 mg/kg) | Stability during repetitive freeze-thaw cycles [2] | Time stable at 4°C ([2]; 4°C) | Time stable at room temperature ([2]; 22°C) | Time stable at −80°C ([2]; −80°C) | half-life ([1]; female, iv) | Ratio of polymyxin B2 to polymyxin B1+polymyxin B2 in plasma, mean [1] | Ratio of polymyxin B2 to polymyxin B1+polymyxin B2 in plasma, range [1] | Plasma concentration of the patient sample of Figure 1E/F [3] |
| --- | --- | --- | --- | --- | --- | --- | --- | --- | --- | --- | --- | --- |
| CC[C@H](C)CCCCC(=O)N[C@@H](CCN)C(=O)N[C@H](C(=O)N[C@@H](CCN)C(=O)N[C@H]1CCNC(=O)[C@H]([C@@H](C)O)NC(=O)[C@H](CCN)NC(=O)[C@H](CCN)NC(=O)[C@H](CC(C)C)NC(=O)[C@@H](Cc2ccccc2)NC(=O)[C@H](CCN)NC1=O)[C@@H](C)O [polymyxin B1] (X1-[Dab]T[Dab][Dab][Dab][dF]L[Dab][Dab]T; lactam 4-C) | 4830 ng/mL | 4.7 h | 1400 ng/mL | 1080 ng/mL | at least three repetitive freeze-thaw cycles | at least 72 h | at least 24 h | at least 3 months | – | – | – | – |
| CC(C)CCCCC(=O)N[C@@H](CCN)C(=O)N[C@H](C(=O)N[C@@H](CCN)C(=O)N[C@H]1CCNC(=O)[C@H]([C@@H](C)O)NC(=O)[C@H](CCN)NC(=O)[C@H](CCN)NC(=O)[C@H](CC(C)C)NC(=O)[C@@H](Cc2ccccc2)NC(=O)[C@H](CCN)NC1=O)[C@@H](C)O [polymyxin B2] ({Heptanoyl(6-Me)}-[Dab]T[Dab][Dab][Dab][dF]L[Dab][Dab]T; lactam 4-C) | – | – | 252 ng/mL | 214 ng/mL | – | – | – | – | 5.4 h | 0.15 | 0.13-0.16 | 322 ng/mL |
